Where “and” joins values, the source holds several entries; their conditions need not be identical. Identical values can stand only once. Like-named read-outs stand apart in the source and are kept apart here.
What was measured:
CYP1A2 = target: T1, CYP1A2 (Homo sapiens, UniProt P05177); experiment: Intrinsic clearance, substrate depletion approach
T1 sequence (P05177 1-516): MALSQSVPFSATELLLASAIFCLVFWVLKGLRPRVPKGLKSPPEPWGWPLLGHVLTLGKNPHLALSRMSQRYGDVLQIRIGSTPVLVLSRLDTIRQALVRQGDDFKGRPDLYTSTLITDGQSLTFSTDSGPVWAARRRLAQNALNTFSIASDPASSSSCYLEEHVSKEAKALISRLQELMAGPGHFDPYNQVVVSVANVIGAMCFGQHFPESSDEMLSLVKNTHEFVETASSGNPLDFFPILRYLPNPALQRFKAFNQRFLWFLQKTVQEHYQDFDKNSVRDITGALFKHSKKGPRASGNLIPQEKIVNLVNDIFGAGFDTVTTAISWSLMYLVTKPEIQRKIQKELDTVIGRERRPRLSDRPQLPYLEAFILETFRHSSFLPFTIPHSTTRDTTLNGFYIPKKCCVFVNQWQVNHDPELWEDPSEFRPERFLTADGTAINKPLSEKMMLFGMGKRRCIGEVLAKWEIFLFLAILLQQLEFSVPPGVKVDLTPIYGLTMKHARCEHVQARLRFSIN

CYP2C19 = CYP2C19 (Homo sapiens, UniProt P33261); experiment: Enzyme kinetics of hydroxylated metabolites formation; format: in vitro ADME; parameters: purchased CYPEX CYP008; host or cells: Escherichia coli; details: CYP2C19, formation of cis‐4‐OH‐PZQ
Experimental: The reactions were carried out in duplicate at each time point. Incubation conditions used for the determination of K M and V max were optimized for linearity with respect to time and protein concentrations. […] Metabolites were analyzed by LC‐MS/MS as described below. The K M and V max values of each marker substrate were determined using nonlinear least squares regression analysis in GraFit software (version 3.0, Erithacus Software Limited) and SigmaPlot Enzyme Kinetics Module for Windows 7.0 (SPSS, Inc).
(§1) The well‐stirred model was used to estimate the hepatic clearance (CLH) due to metabolism.

[1] = PZQ-ketoconazole DDI pharmacokinetic study in healthy volunteers; format: in vivo, human; details: for AUC(0-inf) / AUC / CL/F / k el / half-life / Tmax / Vd/F: male, human, plasma
Experimental: Plasma samples were obtained from the AiBST biobank. […] Each participant served as their own control. Each participant provided written informed consent to take part in the study and the study was carried out according to Helsinki Declaration of 1975, as revised in 2008. The study was approved by the Medical Research Council of Zimbabwe (MRCZ) and the Medicines Controls Authority of Zimbabwe (MCAZ). […] The samples were vortexed for 30 seconds and left under gentle agitation for 25 minutes. […] From the supernatant, 20 μL was injected onto the chiral HPLC system for analysis. […] Detection was done using a UV diode array detector at 210 nm. […] The data were gathered and processed using Agilent OpenLab CDS for Chemstation software version 1.9. Linear calibration curves were plotted as concentration vs peak area ratio for analyte to IS with no weighting. […] The pharmacokinetic (PK) analysis was performed using the WinNonlin program, version 8.2 (Pharsight Corp). […] A non-compartmental approach was used for curve plotting and parameter calculation. The area under the curve (AUC) from time 0 to the last sampling time point (AUCt) was computed using the log-linear trapezoidal rule. The linear trapezoidal rule was used for the ascending part of the PK curve, while the log trapezoidal rule was used for the descending part of the graph. The AUC extrapolated to infinite time was calculated as AUC∞ = AUCt + Ct/K el where Ct is the concentration of the last sample taken and K el is the terminal elimination rate constant. The terminal elimination rate constant K el was determined by least squares regression analysis in the terminal phase of the semi log concentration-time curve. […] Statistical analysis was performed using the GraFit software (version 3.0, Erithacus Software Limited). […] Analysis of variance (ANOVA) was performed on the AUC and C max after transformation of the data to their natural logarithmic (ln) values.

[2] = Simcyp prediction of total hepatic clearance; parameters: species or system human
Experimental: The clearance of the incubation mixture was expressed as μL/min/pmol for rCYP.
as §1

CYP2D6 = CYP2D6 (Homo sapiens, UniProt P10635); experiment: in vitro; details: recombinant CYP2D6, pH 7.4
[3] = Intrinsic clearance, substrate depletion approach; format: in vitro ADME, human; details: human, human liver microsomes, pH 7.4; HLM, 1 µmol/L substrate
Experimental: (§2) The generic conditions were previously described by Masimirembwa and co‐workers. ^24 , ^25 Each reaction mixture consisted of substrate incubated with appropriate enzyme, substrate, and NADPH in potassium phosphate buffer pH 7.4 in a final volume of 200 µL. The substrate was diluted to 40% ACN so that the percent organic component in the final solution was maintained at 1%. The reactions were quenched with 3 volumes of stop solution containing ACN and 0.8% formic acid at 0, 5, 10, 20, 30, 40, and 60 minutes. This was followed by centrifugation at 4500 g for 20 minutes. An aliquot (50 µL) supernatant was collected and diluted (1:1) in water prior to LC‐MS/MS analysis.
(§3) Each reaction was monitored over 7 time points.
as §1

HLM = experiment: Intrinsic clearance, substrate depletion approach; format: in vitro ADME, human; details: substrate depletion
Experimental: as §2, §3, §1

[4] = PZQ + ketoconazole vs PZQ alone
[5] = single oral 20 mg/kg PZQ alone, n = 9, listed as R‐Praziquantel, 20 mg/kg

Chain of CYP2C19 (P33261 whole entry): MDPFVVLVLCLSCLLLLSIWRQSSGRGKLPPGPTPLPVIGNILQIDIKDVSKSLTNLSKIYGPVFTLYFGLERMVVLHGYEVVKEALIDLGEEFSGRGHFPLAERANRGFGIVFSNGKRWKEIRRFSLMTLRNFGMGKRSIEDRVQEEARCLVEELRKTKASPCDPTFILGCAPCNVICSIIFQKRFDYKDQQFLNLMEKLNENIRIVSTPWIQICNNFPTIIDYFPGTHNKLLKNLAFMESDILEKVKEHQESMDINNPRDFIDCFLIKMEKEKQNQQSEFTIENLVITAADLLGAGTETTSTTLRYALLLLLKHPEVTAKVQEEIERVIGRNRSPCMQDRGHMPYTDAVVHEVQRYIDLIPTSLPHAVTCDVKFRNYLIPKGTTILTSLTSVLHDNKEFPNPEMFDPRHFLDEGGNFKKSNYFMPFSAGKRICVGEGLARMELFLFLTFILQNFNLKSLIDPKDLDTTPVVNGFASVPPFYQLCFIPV
Chain of CYP2D6 (P10635 whole entry): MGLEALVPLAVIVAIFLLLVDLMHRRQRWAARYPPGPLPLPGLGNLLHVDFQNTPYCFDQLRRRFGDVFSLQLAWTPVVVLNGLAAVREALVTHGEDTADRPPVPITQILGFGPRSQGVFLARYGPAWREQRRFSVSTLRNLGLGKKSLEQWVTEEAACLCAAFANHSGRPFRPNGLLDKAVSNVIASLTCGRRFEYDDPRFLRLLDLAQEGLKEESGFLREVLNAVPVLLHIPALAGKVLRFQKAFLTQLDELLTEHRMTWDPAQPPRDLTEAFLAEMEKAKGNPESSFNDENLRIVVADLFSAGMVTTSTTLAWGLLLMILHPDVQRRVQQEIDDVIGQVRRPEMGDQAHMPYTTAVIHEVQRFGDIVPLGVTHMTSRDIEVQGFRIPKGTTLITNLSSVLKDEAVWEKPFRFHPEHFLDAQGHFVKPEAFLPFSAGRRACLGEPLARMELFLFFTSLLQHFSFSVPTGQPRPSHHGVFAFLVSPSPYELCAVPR

Q: Which “Predicted CLH” value (CYP1A2; rCYP1A2, substrate depletion) does the source give for `O=C(C1CCCCC1)N1CC(=O)N2CCc3ccccc3[C@@H]2C1` [R‐PZQ, R‐Praziquantel] here?
A: 5.071 mL/min/kg

Q: What about the “Predicted CLuH,int” value (CYP1A2; rCYP1A2, substrate depletion) of the same molecule?
A: 27.80 mL/min/kg

Q: And the “Clearance class, CYP1A2‐mediated” value (CYP1A2; substrate depletion)?
A: high

Q: And the “Clearance by CYP1A2, R‐PZQ compared to S‐PZQ” value (CYP1A2; substrate depletion, times faster)?
A: 2 times

Q: And the “CLuH,int” value (CYP2C19)?
A: 4.60 mL/min/kg and 4.600 mL/min/kg

Q: What about the “Clearance/F, treatment mean (SD)” value ([1]; 20 mg/kg PZQ plus 200 mg ketoconazole, n = 9) of the same molecule?
A: 1146 (992.1) L/h

Q: What about the “Decrease of mean C max with KTZ” value ([1]; PZQ + KTZ vs PZQ alone) of the same molecule?
A: 11.85%

Q: What about the “AUCinf, difference observed %” value [1, 4] of the same molecule?
A: 9% and 9.26%

Q: What about the “AUCt0‐tlast, difference observed %” value [1, 4] of the same molecule?
A: −14.68%

Q: And the “C max, difference observed %” value [1, 4]?
A: −11.85%

Q: And the “Clearance/F, difference observed %” value [1, 4]?
A: 26.99%

Q: And the “Elimination rate constant, difference observed %” value [1, 4]?
A: −4.350%

Q: What about the “Half life, difference observed %” value [1, 4] of the same molecule?
A: 79.64%

Q: What about the “T max, difference observed %” value [1, 4] of the same molecule?
A: −46.33%

Q: And the “V d/F, difference observed %” value [1, 4]?
A: 74.87%

Q: What about the “AUCinf, difference observed %” value ([1]; PZQ + ketoconazole vs PZQ alone, listed as R‐Praziquantel) of the same molecule?
A: 9.290%

Q: And the AUC(0-inf) ([1]; oral, 20 mg/kg, 20 mg/kg PZQ plus 200 mg ketoconazole, n = 9, read-out: AUCinf, treatment geo mean)?
A: 1290 ng·h/mL

Q: What about the AUC(0-inf) ([1]; oral, 20 mg/kg, 20 mg/kg PZQ plus 200 mg ketoconazole, n = 9, read-out: AUCinf, treatment mean (SD)) of the same molecule?
A: 1470 ng·h/mL

Q: And the AUC ([1]; oral, 20 mg/kg, 20 mg/kg PZQ plus 200 mg ketoconazole, n = 9, read-out: AUCt0‐tlast, treatment geo mean)?
A: 945 ng·h/mL

Q: And the CL/F ([1]; oral, 20 mg/kg, 20 mg/kg PZQ plus 200 mg ketoconazole, n = 9, read-out: Clearance/F, treatment geo mean (converted))?
A: 15300 mL/min

Q: And the CL/F ([1]; oral, 20 mg/kg, 20 mg/kg PZQ plus 200 mg ketoconazole, n = 9, read-out: Clearance/F, treatment mean (SD) (converted))?
A: 19100 mL/min

Q: What about the k el ([1]; oral, 20 mg/kg, 20 mg/kg PZQ plus 200 mg ketoconazole, n = 9, read-out: Elimination rate constant, treatment geo mean (converted)) of the same molecule?
A: 4.44e-05 s⁻¹

Q: And the k el ([1]; oral, 20 mg/kg, 20 mg/kg PZQ plus 200 mg ketoconazole, n = 9, read-out: Elimination rate constant, treatment mean (SD) (converted))?
A: 6.11e-05 s⁻¹

Q: And the half-life ([1]; oral, 20 mg/kg, 20 mg/kg PZQ plus 200 mg ketoconazole, n = 9, read-out: Half life, treatment geo mean (converted))?
A: 4.14 h

Q: What about the half-life ([1]; oral, 20 mg/kg, 20 mg/kg PZQ plus 200 mg ketoconazole, n = 9, read-out: Half life, treatment mean (SD) (converted)) of the same molecule?
A: 6 h

Q: What about the Tmax ([1]; oral, 20 mg/kg, 20 mg/kg PZQ plus 200 mg ketoconazole, n = 9, read-out: T max, treatment geo mean) of the same molecule?
A: 1.53 h

Q: What about the Tmax ([1]; oral, 20 mg/kg, 20 mg/kg PZQ plus 200 mg ketoconazole, n = 9, read-out: T max, treatment mean (SD)) of the same molecule?
A: 1.61 h

Q: What about the Vd/F ([1]; oral, 20 mg/kg, 20 mg/kg PZQ plus 200 mg ketoconazole, n = 9, read-out: V d/F, treatment geo mean) of the same molecule?
A: 5480 L

Q: And the Vd/F ([1]; oral, 20 mg/kg, 20 mg/kg PZQ plus 200 mg ketoconazole, n = 9, read-out: V d/F, treatment mean (SD))?
A: 7880 L

Q: And the AUC ([1]; oral, 20 mg/kg, AUC, PZQ alone)?
A: 1350 ± 1470 ng·h/mL

Q: What about the AUC ([1]; oral, 20 mg/kg, read-out: AUC from the in vivo pharmacokinetic study) of the same molecule?
A: 2400 ng·h/mL

Q: And the AUC ([1]; oral, AUC, PZQ + KTZ)?
A: 1470 ± 767 ng·h/mL

Q: What about the AUC(0-inf) ([1]; po, 20 mg/kg, single oral 20 mg/kg PZQ alone, n = 9, read-out: AUCinf, reference geo mean) of the same molecule?
A: 1300 ng·h/mL

Q: And the AUC(0-inf) ([1]; po, 20 mg/kg, single oral 20 mg/kg PZQ alone, n = 9, read-out: AUCinf, reference mean (SD))?
A: 1340 ng·h/mL

Q: And the AUC ([1]; po, 20 mg/kg, single oral 20 mg/kg PZQ alone, n = 9, read-out: AUCt0‐tlast, reference geo mean)?
A: 1120 ng·h/mL

Q: And the AUC ([1]; po, 20 mg/kg, single oral 20 mg/kg PZQ alone, n = 9, read-out: AUCt0‐tlast, reference mean (SD))?
A: 1240 ng·h/mL

Q: What about the CL/F ([1]; po, 20 mg/kg, single oral 20 mg/kg PZQ alone, n = 9, read-out: Clearance/F, reference geo mean (converted)) of the same molecule?
A: 14600 mL/min

Q: And the CL/F ([1]; po, 20 mg/kg, single oral 20 mg/kg PZQ alone, n = 9, read-out: Clearance/F, reference mean (SD) (converted))?
A: 15000 mL/min

Q: What about the k el ([1]; po, 20 mg/kg, single oral 20 mg/kg PZQ alone, n = 9, read-out: Elimination rate constant, reference geo mean (converted)) of the same molecule?
A: 6.11e-05 s⁻¹

Q: And the k el ([1]; po, 20 mg/kg, single oral 20 mg/kg PZQ alone, n = 9, read-out: Elimination rate constant, reference mean (SD) (converted))?
A: 6.39e-05 s⁻¹

Q: And the half-life ([1]; po, 20 mg/kg, single oral 20 mg/kg PZQ alone, n = 9, read-out: Half life, reference geo mean (converted))?
A: 3.21 h

Q: What about the half-life ([1]; po, 20 mg/kg, single oral 20 mg/kg PZQ alone, n = 9, read-out: Half life, reference mean (SD) (converted)) of the same molecule?
A: 3.34 h

Q: What about the Tmax ([1]; po, 20 mg/kg, single oral 20 mg/kg PZQ alone, n = 9, read-out: T max, reference geo mean) of the same molecule?
A: 2.59 h

Q: And the Tmax ([1]; po, 20 mg/kg, single oral 20 mg/kg PZQ alone, n = 9, read-out: T max, reference mean (SD))?
A: 3 h

Q: And the Vd/F ([1]; po, 20 mg/kg, single oral 20 mg/kg PZQ alone, n = 9, read-out: V d/F, reference geo mean)?
A: 4050 L

Q: And the Vd/F ([1]; po, 20 mg/kg, single oral 20 mg/kg PZQ alone, n = 9, read-out: V d/F, reference mean (SD))?
A: 4510 L

Q: And the “Clearance/F, reference mean (SD)” value ([1]; single oral 20 mg/kg PZQ alone, n = 9, 20 mg/kg)?
A: 902.09 ± 264 L/h

Q: And the “C max, reference mean (SD)” value [1, 5]?
A: 313.1 (131.1) ng/mL

Q: And the “Clearance/F, reference mean (SD)” value [1, 5]?
A: 902.1 (264.9) L/h

Q: What about the “Predicted total CLH (Simcyp)” value ([2]; metabolite formation assay) of the same molecule?
A: 9.777 mL/min/kg

Q: What about the “Predicted total CLH (Simcyp)” value ([2]; substrate depletion assay) of the same molecule?
A: 6.923 mL/min/kg

Q: What about the half-life at 1 µmol/L (CYP2D6) of the same molecule?
A: 0.578 h

Q: What about the half-life at 1 µmol/L [3] of the same molecule?
A: 0.191 h

Q: What about the “Predicted CLuH,int” value (HLM; HLM) of the same molecule?
A: 172.0 mL/min/kg

Q: And the “Predicted CLH” value (HLM; HLM, well‐stirred model)?
A: 13.06 mL/min/kg

Q: What about the “Clearance class, HLM‐mediated” value (HLM) of the same molecule?
A: high

Source: paper PMC7376644 (Pharmacology Research & Perspectives, 2020)
